Experimental data taken from patent US20260062376A1, “SQUARAMIDE DERIVATIVES AS CB1 ALLOSTERIC MODULATORS” (RESEARCH TRIANGLE INSTITUTE, priority 2022, published 2026).

Target: Human CB1 (Homo sapiens (Human), UniProt P21554)
Experiment: Calcium mobilization assay (antagonist mode vs CP55,940)
Assay type: cell-based
Settings: CHO-RD-HGA16 cells stably expressing human CB1; against EC50 concentration of CP55,940; mean ± SEM, at least three experiments
Protocol: Calcium Mobilization Assay: CHO-RD-HGA16 cells (Molecular Devices, San Jose, California, United States of America) stably expressing the human CB1 receptor were plated into 96-well black-walled assay plates at 25,000 cells/well in 100 μL of Ham's F12 (supplemented with 10% fetal bovine serum, 100 units of penicillin/streptomycin, and 100 μg/mL Normocin) and incubated overnight at 37° C., 5% CO2. Calcium 5 dye (Molecular Devices, San Jose, California, United States of America) was reconstituted according to the manufacturer's instructions. The reconstituted dye was diluted 1:40 in prewarmed (37° C.) assay buffer (lx HBSS, 20 mM HEPES, 2.5 mM probenecid, pH 7.4 at 37° C.). Growth medium was removed, and the cells were gently washed with 100 μL of prewarmed (37° C.) assay buffer. […] After the pretreatment incubation period, the plate was read with a FLIPR Tetra (Molecular Devices, San Jose, California, United States of America). […] Relative fluorescence units (RFU) were plotted against the log of compound concentrations. […] Test compound RFUs were compared to the CP55,940 Emax RFUs to generate % Emax values. For the CB2 agonist and antagonist assays, the same procedures were followed except that stable human CB2—CHO-RD-HGA16 cells were used.
Data Analysis: For calcium mobilization experiments, data were fit to a three-parameter logistic curve to generate IC50 values (GraphPad Prism 6.0, Graphpad Software, San Diego, California, United States of America). For [^35S]GTPγS experiments, data were normalized to maximal CP55,940 (100 nM) stimulation in the absence of test compound (i.e., vehicle=100%).

Human CB1, sequence (P21554 whole entry): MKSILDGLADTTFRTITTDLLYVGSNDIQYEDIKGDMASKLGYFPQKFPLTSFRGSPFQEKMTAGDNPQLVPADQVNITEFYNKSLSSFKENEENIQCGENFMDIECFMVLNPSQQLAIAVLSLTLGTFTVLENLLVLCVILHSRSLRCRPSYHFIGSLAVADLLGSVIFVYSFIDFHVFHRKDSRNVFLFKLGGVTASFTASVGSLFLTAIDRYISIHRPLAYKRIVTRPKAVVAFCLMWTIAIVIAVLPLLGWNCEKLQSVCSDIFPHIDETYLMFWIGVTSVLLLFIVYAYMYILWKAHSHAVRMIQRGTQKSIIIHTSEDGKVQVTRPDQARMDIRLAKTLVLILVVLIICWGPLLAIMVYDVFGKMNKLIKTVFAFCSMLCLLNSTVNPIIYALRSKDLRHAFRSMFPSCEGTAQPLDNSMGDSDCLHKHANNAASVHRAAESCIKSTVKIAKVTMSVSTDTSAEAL

| Structure (SMILES) | IC50 [nM] |
| --- | --- |
| O=c1c(NCCCc2ccccc2)c(Nc2ccc(Cl)cc2)c1=O [Compound 12, 3-[(4-Chlorophenyl)amino]-4-[(3-phenylpropyl)amino]cyclobut-3-ene-1,2-dione] | 1040 ± 359 |
| O=c1c(NCCc2ccc(Cl)cc2)c(Nc2ccc(Cl)cc2)c1=O [Compound 13, 3-[(4-Chlorophenyl)amino]-4-{[2-(4-chlorophenyl)ethyl]amino}cyclobut-3-ene-1,2-dione] | 222 ± 35 |
| Cc1cccc(CCNc2c(Nc3ccc(Cl)cc3)c(=O)c2=O)c1 [Compound 14, 3-[(4-Chlorophenyl)amino]-4-{[2-(3-methylphenyl)ethyl]amino}cyclobut-3-ene-1,2-dione] | 205 ± 41 |
| Cc1ccc(CCNc2c(Nc3ccc(Cl)cc3)c(=O)c2=O)cc1 [Compound 15, 3-[(4-Chlorophenyl)amino]-4-{[2-(4-methylphenyl)ethyl]amino}cyclobut-3-ene-1,2-dione] | 164 ± 30 |
| COc1ccccc1CCNc1c(Nc2ccc(Cl)cc2)c(=O)c1=O [Compound 16, 3-[(4-Chlorophenyl)amino]-4-{[2-(2-methoxyphenyl)ethyl]amino}cyclobut-3-ene-1,2-dione] | 1110 ± 88 |
| COc1cccc(CCNc2c(Nc3ccc(Cl)cc3)c(=O)c2=O)c1 [Compound 17, 3-[(4-Chlorophenyl)amino]-4-{[2-(3-methoxyphenyl)ethyl]amino}cyclobut-3-ene-1,2-dione] | 350 ± 39 |
| COc1ccc(CCNc2c(Nc3ccc(Cl)cc3)c(=O)c2=O)cc1 [Compound 18, 3-[(4-Chlorophenyl)amino]-4-{[2-(4-methoxyphenyl)ethyl]amino}cyclobut-3-ene-1,2-dione] | 734 ± 310 |
| O=c1c(NCCc2ccccc2C(F)(F)F)c(Nc2ccc(Cl)cc2)c1=O [Compound 19, 3-[(4-Chlorophenyl)amino]-4-({2-[2-(trifluoromethyl)phenyl]ethyl}amino)cyclobut-3-ene-1,2-dione] | 933 |
| O=c1c(NCCc2cccc(C(F)(F)F)c2)c(Nc2ccc(Cl)cc2)c1=O [Compound 20, 3-[(4-Chlorophenyl)amino]-4-({2-[3-(trifluoromethyl)phenyl]ethyl}amino)cyclobut-3-ene-1,2-dione] | 360 ± 65 |
| O=c1c(NCCc2ccc(C(F)(F)F)cc2)c(Nc2ccc(Cl)cc2)c1=O [Compound 21, 3-[(4-Chlorophenyl)amino]-4-({2-[4-(trifluoromethyl)phenyl]ethyl}amino)cyclobut-3-ene-1,2-dione] | 275 ± 13 |
| O=c1c(NCCc2ccc(F)cc2)c(Nc2ccc(Cl)cc2)c1=O [Compound 22, 3-[(4-Chlorophenyl)amino]-4-{[2-(4-fluorophenyl)ethyl]amino}cyclobut-3-ene-1,2-dione] | 337 ± 21 |
| O=c1c(NCCc2ccccc2Cl)c(Nc2ccc(Cl)cc2)c1=O [Compound 23, 3-[(4-Chlorophenyl)amino]-4-{[2-(2-chlorophenyl)ethyl]amino}cyclobut-3-ene-1,2-dione] | 1290 ± 201 |
| O=c1c(NCCc2ccccc2F)c(Nc2ccc(Cl)cc2)c1=O [Compound 24, 3-[(4-Chlorophenyl)amino]-4-{[2-(2-fluorophenyl)ethyl]amino}cyclobut-3-ene-1,2-dione] | 274 ± 33 |
| O=c1c(NCCc2cccc(F)c2)c(Nc2ccc(Cl)cc2)c1=O [Compound 25, 3-[(4-Chlorophenyl)amino]-4-{[2-(3-fluorophenyl)ethyl]amino}cyclobut-3-ene-1,2-dione] | 286 ± 28 |
| CN(C)c1cccc(CCNc2c(Nc3ccc(Cl)cc3)c(=O)c2=O)c1 [Compound 26, 3-[(4-Chlorophenyl)amino]-4-({2-[3-(dimethylamino)phenyl]ethyl}amino)cyclobut-3-ene-1,2-dione] | 2100 ± 272 |
| CN(C)c1ccc(CCNc2c(Nc3ccc(Cl)cc3)c(=O)c2=O)cc1 [Compound 27, 3-[(4-Chlorophenyl)amino]-4-({2-[4-(dimethylamino)phenyl]ethyl}amino)cyclobut-3-ene-1,2-dione] | 535 ± 135 |
| O=c1c(Nc2ccc(Cl)cc2)c(Nc2cccc(-c3ccccc3)c2)c1=O [Compound 29, 3-(Biphenyl-3-ylamino)-4-[(4-chlorophenyl)amino]cyclobut-3-ene-1,2-dione] | 408 ± 94 |
